Measurements as given in patent EP0011608A1, “Novel allenic amine and acid addition salts thereof, a process for their preparation, pharmaceutical preparations comprising them and the use of these compounds in the preparation of pharmaceutical compositions” (priority 1978, dated 1980).

Assays:
Assay type in all cases: in vivo
monoamine oxidase enzyme [1] = target: T1, monoamine oxidase enzyme (Mus musculus, UniProt Q64133); assay: MAO inhibition in mouse brain slices after intraperitoneal injection: deamination of [14C]-5-hydroxytryptamine; conditions: for inhibition of the MAO activity against 5-hydroxytryptamine (in words): in vivo; for ED50: effective dose for 50 % inhibition
T1 construct: from tissue; host or cells: mouse brain slices (hypothalamus, thalamus, midbrain), ex vivo after i.p. dosing
T1 sequence (Q64133 1-526): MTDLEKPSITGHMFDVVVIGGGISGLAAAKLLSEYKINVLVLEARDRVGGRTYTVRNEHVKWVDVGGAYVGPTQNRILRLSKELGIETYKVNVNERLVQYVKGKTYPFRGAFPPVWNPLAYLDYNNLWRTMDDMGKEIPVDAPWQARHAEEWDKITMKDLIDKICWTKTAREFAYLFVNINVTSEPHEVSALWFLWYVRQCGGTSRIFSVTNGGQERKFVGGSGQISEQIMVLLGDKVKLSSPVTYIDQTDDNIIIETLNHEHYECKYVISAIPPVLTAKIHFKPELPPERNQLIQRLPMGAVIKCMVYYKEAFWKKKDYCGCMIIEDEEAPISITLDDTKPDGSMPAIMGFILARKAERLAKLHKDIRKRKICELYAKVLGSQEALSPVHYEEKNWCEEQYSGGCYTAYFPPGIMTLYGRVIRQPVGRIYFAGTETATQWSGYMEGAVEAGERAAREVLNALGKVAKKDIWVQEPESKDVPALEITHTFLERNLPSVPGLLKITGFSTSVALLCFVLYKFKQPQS
Text: (§1) It is not possible by experimental means to induce depressions in laboratory animals. In order to evaluate a possible antidepressive effect of new substances biochemical-pharmacological test methods must be resorted to. One such method, which seems to give good indication of the potential antidepressive effects of the test substances, is a test for monoamine oxidase enzyme inhibiting activity. The deamination of [^3H]phenethylamine, [^3H]tyramine, and [^14C]-5-hydroxytryptamine by brain slices was determined according to the following method.
(§2) Slices (100 mg) of the central part of the mouse brain including hypothalamus, thalamus, and midbrain were incubated for 5 min with 1 x 10^-7 M of the labeled substrate in 2.0 ml of Krebs-Henseleit's buffer, pH 7.4, containing […] of glucose, The slices were then homogenized in an all-glass homogenizer with 1.0 ml of 1 N HCl containing carrier amounts ([…]) of the nonlabeled amine and its deaminated acid product. An aliquot of 1.1 ml of a brain homogenate in 10 vol of 1 N HCl containing the substrate and product carriers was added to 0.5 ml of the incubation medium. The brain homogenate was added in order to facilitate the extraction of tyramine and 5-HT. The acid and neutral products were extracted into 6.0 ml of ethyl acetate by vigorous shaking for 10 s. After centrifugation, 4.0 ml of the organic phase was taken for determination of radicactivity, The remaining ethyl acetate was removed; the water phase was made alkaline with solid sodium carbonate and 1.0 ml of 0.5 M borate buffer, pH 10. The amine was then extracted into 6.0 ml of ethyl acetate and 4.0 ml of the organic phase was taken for the assay. The deamination of [^3H]tyramine and [^14C]-5-HT was determined simultaneously by utilizing the double-labeling technique. (S.B. Ross, A.L. Renyi, and S.-O. Ögren, Eur. J. Pharmacol., 17, 107 (1972)).
(§3) Inhibition of the MAO activity in the brain slices was determined 1 h after the intraperitoneal injection of the test compound. The inhibition was expressed in percent and calculated on the total formation of acid and neutral products formed in the brain slices of animals treated with the test compounds or with saline.

monoamine oxidase enzyme [2] = assay: MAO inhibition in mouse brain slices after intraperitoneal injection: deamination of [3H]tyramine; conditions: for ED50: deamination of tyramine, effective dose for 50 % inhibition, 1 h after adm.; for inhibition of the MAO activity against tyramine (in words): mouse, in vivo
Text: as §1, §2, §3

monoamine oxidase enzyme [3] = target: T2, monoamine oxidase enzyme (Mus musculus, UniProt Q8BW75); assay: MAO inhibition in mouse brain slices after intraperitoneal injection: deamination of [3H]phenethylamine; conditions: for inhibition at 4 mg/kg: dose 4 mg/kg intraperitoneal; for inhibition at 32 mg/kg: dose 32 mg/kg intraperitoneal; for ED50: effective dose for 50 % inhibition; for inhibition at 29 mg/kg: dose 29 mg/kg intraperitoneal
T2 construct: from tissue; host or cells: mouse brain slices (hypothalamus, thalamus, midbrain), ex vivo after i.p. dosing
T2 sequence (Q8BW75 1-520): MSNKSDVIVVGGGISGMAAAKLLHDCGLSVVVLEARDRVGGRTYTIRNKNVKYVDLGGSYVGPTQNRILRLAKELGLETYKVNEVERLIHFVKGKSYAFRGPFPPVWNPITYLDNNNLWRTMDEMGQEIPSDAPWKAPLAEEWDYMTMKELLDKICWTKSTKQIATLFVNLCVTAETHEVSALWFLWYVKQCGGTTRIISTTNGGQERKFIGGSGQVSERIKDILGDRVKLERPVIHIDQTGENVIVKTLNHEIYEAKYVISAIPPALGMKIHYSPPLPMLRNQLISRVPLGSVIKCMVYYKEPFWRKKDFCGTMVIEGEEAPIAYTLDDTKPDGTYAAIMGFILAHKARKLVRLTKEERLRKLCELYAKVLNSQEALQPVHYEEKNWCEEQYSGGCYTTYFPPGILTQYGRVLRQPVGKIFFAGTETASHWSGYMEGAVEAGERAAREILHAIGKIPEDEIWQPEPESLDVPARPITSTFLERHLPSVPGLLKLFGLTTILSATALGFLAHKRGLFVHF
Text: as §1, §2
[…] The inhibition was expressed in percent and calculated on the total formation of acid and neutral products formed in the brain slices of animals treated with the test compounds or with saline.

[4] = mouse, ip, deamination of 5-hydroxytryptamine, 1 h after adm.
[5] = mouse, ip, deamination of phenethylamine, 1 h after adm.
[6] = mouse, ip, deamination of phenethylamine, 24 h after adm.
[7] = comparison of ACS 104 with ACS 64

| SMILES | inhibition of the MAO activity against 5-hydroxytryptamine (in words) (monoamine oxidase enzyme [1]; mouse) | inhibition at 32 mg/kg (monoamine oxidase enzyme [1]; mouse, ip, deamination of 5-hydroxytryptamine, dose 32 mg/kg intraperitoneal, 1 h after adm.) | ED50 (monoamine oxidase enzyme [1]; [4]) | ED50 (monoamine oxidase enzyme [2]) | inhibition of the MAO activity against tyramine (in words) (monoamine oxidase enzyme [2]) | inhibition at 4 mg/kg (monoamine oxidase enzyme [3]; [5]) | inhibition at 32 mg/kg (monoamine oxidase enzyme [3]; [5]) | inhibition at 32 mg/kg (monoamine oxidase enzyme [3]; [6]) | ED50 (monoamine oxidase enzyme [3]; [5]) | potency relative to the prior art compound, MAO activity against 5-hydroxytryptamine (monoamine oxidase enzyme [1]; [7]) | inhibition at 29 mg/kg (monoamine oxidase enzyme [1]; mouse, ip, deamination of 5-hydroxytryptamine, dose 29 mg/kg intraperitoneal, 1 h after adm.) | potency relative to the prior art compound, MAO activity against tyramine (monoamine oxidase enzyme [2]; [7]) | potency relative to the prior art compound, inhibition of the MAO activity against phenethylamine (monoamine oxidase enzyme [3]; comparison of ED50-values of ACS 104 and ACS 64) | inhibition at 1 mg/kg (monoamine oxidase enzyme [3]; mouse, ip, deamination of phenethylamine, dose 1 mg/kg intraperitoneal, 1 h after adm.) | inhibition at 29 mg/kg (monoamine oxidase enzyme [3]; [5]) | inhibition at 29 mg/kg (monoamine oxidase enzyme [3]; [6]) |
| --- | --- | --- | --- | --- | --- | --- | --- | --- | --- | --- | --- | --- | --- | --- | --- | --- |
| C=C=CCN(C)Cc1ccccc1.Cl [ACS 64, N-2,3-butadienyl--N-methylbenzylamine hydrochloride, reference compound] | only weak inhibitors | 16 ± 2% | > 150 µmol/kg | >150 µmol/kg | only weak inhibitors | 31 ± 7% | 86 ± 3% | 70 ± 1% | 50 µmol/kg |  |  |  |  |  |  |  |
| C=C=C(CN)Cc1ccccc1.Cl [ACS 104, 2-benzyl-2,3-butadienamine hydrochloride] | only weak inhibitors |  | ~150 µmol/kg | <150 µmol/kg | only weak inhibitors | 67 ± 2% |  |  | 16 µmol/kg | somewhat, more potent than the prior art compound | 48 ± 2% | somewhat, more potent than the prior art compound | about three times as potent as the prior art compound | 19 ± 3% | 92 ± 1% | 39 ± 2% |
